Test results reported in patent publication US7199126B2, “Compositions and treatments for inhibiting kinase and/or HMG-CoA reductase” (Pharmix Corporation, priority 2004, dated 2007).
pIC50: −log10 of the molar value.

Molecular target: T1, human recombinant p38α protein kinase (Homo sapiens, UniProt Q16539)
T1 construct: purchased UBI (Upstate Biotechnology Inc.) 14–251; host or cells: E. coli
Experiment: Human p38α MAP kinase inhibition assay (cell-free, phosphorylation of myelin basic protein)
Format: biochemical
Method: Candidate compound and/or vehicle was preincubated with 0.075 μg/mL enzyme in modified HEPES buffer pH 7.4 at 25° C. for 15 minutes. The reaction was initiated by addition of 100 μM ATP and allowed to proceed for another 60 minutes. The reaction was terminated by aspirating the solution. Phosphorylated MBP was detected by incubation with a mouse monoclonal IgG2a anti-phosphoMBP antibody. Bound anti-phosphoMBP antibody was quantitated by incubation with a HRP conjugated goat anti-mouse IgG.

T1 sequence (Q16539 whole entry): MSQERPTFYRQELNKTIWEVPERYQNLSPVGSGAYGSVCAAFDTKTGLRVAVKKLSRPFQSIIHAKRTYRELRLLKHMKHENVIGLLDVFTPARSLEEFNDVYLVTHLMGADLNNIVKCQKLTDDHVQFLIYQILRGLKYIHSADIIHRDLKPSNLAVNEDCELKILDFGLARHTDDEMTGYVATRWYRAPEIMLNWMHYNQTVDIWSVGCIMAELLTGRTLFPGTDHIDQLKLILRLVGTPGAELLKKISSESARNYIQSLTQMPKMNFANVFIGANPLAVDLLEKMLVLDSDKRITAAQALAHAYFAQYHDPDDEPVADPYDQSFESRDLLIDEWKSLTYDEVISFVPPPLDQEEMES

## CCC(C)(C)C(=O)O[C@H]1C[C@@H](C)C=C2C=C[C@H](C)[C@H](CC[C@@H]3C[C@@H](O)CC(=O)O3)[C@H]21 [Simvastatin sodium]
  pIC50: < 4.00
